≈ marks a conversion by molar mass, not a printed value.

Usually MIC stands for the lowest concentration that inhibits growth of the organism. A lower MIC goes with a more susceptible organism.

Common to all, as to type: functional
The subject of test [1] is Streptococcus pyogenes. Briefly: In vitro antibacterial activity against sensitive strain Streptococcus pyogenes 77A.
Test [2] has as its system Staphylococcus epidermidis. As to the kind of experiment: In vitro antibacterial activity against oxacilline resistant strain Staphylococcus epidermidis 012GO39.
For test [3], the system named is Enterococcus faecalis. As to the kind of experiment: In vitro antibacterial activity against vancomycin resistant strain Streptococcus faecalis 02D2DU17.
Test [4] relates to Enterococcus faecium. Briefly: In vitro antibacterial activity against sensitive strain Streptococcus faecium M78L.
For test [5], the system named is Staphylococcus aureus. As to the kind of experiment: In vitro antibacterial activity against sensitive strain Staphylococcus aureus SG 511.
The subject of test [6] is Escherichia coli. Briefly: In vitro antibacterial activity against Escherichia coli UC 1894.
The subject of test [7] is Staphylococcus aureus. Briefly: In vitro antibacterial activity against oxacilline resistant strain Staphylococcus aureus O11CB20.
Test [8] concerns Enterococcus faecium. Briefly: In vitro antibacterial activity against vancomycin resistant strain Streptococcus faecium 02D3IP1.

With `CC(=O)NC[C@H]1C=C(c2ccc(C(C)=O)cc2)C(=O)O1`, the minimum inhibitory concentration (MIC) was 2.5 µg/mL (≈ 9.15 µM) in test [1]; 2.5 µg/mL (≈ 9.15 µM) in test [2]; 2.5 µg/mL (≈ 9.15 µM) in test [3]; 5 µg/mL (≈ 18.3 µM) in test [4]; 1.2 µg/mL (≈ 4.39 µM) in test [5]; more than 40 µg/mL in test [6]. For the same compound, the values for the minimal inhibitory concentration (MIC) in test [7] and in test [8] were 1.2 µg/mL (≈ 4.39 µM) and 2.5 µg/mL (≈ 9.15 µM), respectively.

For `CC(=O)NC[C@H]1CN(c2ccc(C(C)=O)cc2)C(=O)O1` [DUP-721], the MIC in test [1] is 0.6 µg/mL (≈ 2.17 µM); in test [2], 2.5 µg/mL (≈ 9.05 µM); in test [3], 2.5 µg/mL (≈ 9.05 µM); in test [4], 2.5 µg/mL (≈ 9.05 µM); in test [5] it was 1.2 µg/mL (≈ 4.34 µM); in test [6] it was more than 40 µg/mL. Further, the MIC was 1.2 µg/mL (≈ 4.34 µM) in test [7] and less than 1.2 µg/mL in test [8].

For `CC(=O)NC[C@@H]1CCN(c2ccc(C(C)=O)cc2)C1`, the MIC in test [1], in test [2], in test [3], in test [4], in test [5] and in test [6] was more than 40 µg/mL in each case. The MIC in test [8] is more than 40 µg/mL.

Turning to `CC(=O)NC[C@@H]1CC(=O)N(c2ccc(C(C)=O)cc2)C1`, the MIC in test [1], in test [2], in test [3], in test [4], in test [5] and in test [6] was more than 40 µg/mL each time. In addition, the MIC in test [8] is more than 40 µg/mL.

For the origin of these results see ChEMBL document CHEMBL1127945, “5-Aryl-, butenolide, a new class of antibacterial derived from the N-aryl oxazolidinone DUP 721” (1994).
